Laboratory results taken from US20230202985A1, “Indoles, Indazoles, and Related Analogs for Inhibiting YAP/TAZ-TEAD” (THE KATHOLIEKE UNIVERSITEIT LEUVEN, priority 2021, published 2023).

Columns and labels:
Type in all cases: cell-based
[1] = system: YAP/TAZ-TEAD transcription; assay: Reporter gene assay for measuring the inhibition of YAP/TAZ-TEAD transcription (TEAD-responsive element luciferase reporter in Hek293T cells); settings: Homo sapiens, HEK-293T; Hek293T cells transfected with TEAD-responsive luciferase reporter, 24 hours incubation
Method: Hek293T cells are cultured in DMEM supplemented with 10% fetal bovine serum, Sodium pyruvate, Sodium bicarbonate, L-glutamine. The cells are harvested and transiently transfected with TEAD-responsive element luciferase reporter. Transfected cells are plated in 384-wells plate containing pre-diluted compounds. After 24 hours incubation at 37° C./5% CO2, assay plates were cooled down to RT and levelled to an equal volume per well, prior to the addition of 25 uL luciferase substrate SteadyLite (Perkin Elmer)/well. The plate was shaken for 10 min at 600 rpm, centrifuged for 1 min at 500 rpm and measured with an Envision reader (PerkinElmer). The amount of relative light units produced by the TEAD reporter is used to calculated percent of inhibition.
The percent of reporter inhibition was calculated in the presence of a positive control inhibitor (100% inhibition) versus a condition with the presence of the vehicle basal activity of the reporter (0% inhibition). The ability of a test compound to inhibit this activity was determined as:
Percentage inhibition=[1−((RLU determined in the presence of vehicle−RLU determined for sample with test compound present) divided by (RLU determined in the presence of vehicle−RLU determined for sample with positive control inhibitor))]*100
The activities of example compounds tested are depicted in Table 6. The activity ranges A, B and C refer to IC50 values in the reporter gene assay as follows: “A”: IC50<1 μM; “B”: 1 μM≤IC50≤20 μM and “C”: IC50>20 μM; NT=not tested.

NCI-H226 = assay: Mesothelioma cell line proliferation assay (ATPlite), NCI-H226; settings: Homo sapiens, 144 h; NCI-H226 cells, 6 days with compound, cell viability by ATPlite
Method: (§1) Mesothelioma cell lines, NCI-H226 and NCI-H2052 (all sourced from the ATCC cell culture collection) are plated in 96-well plates (Corning® 96 Well White Polystyrene Microplate clear flat bottom, white polystyrene (TC-Treated)), at 1500 cells/well in full medium (RPMI 1640 ATCC modification with L-glutamine, HEPES, Phenol Red, Sodium Pyruvate, High glucose, Low sodium bicarbonate and 10% fetal bovine serum). Cells are incubated overnight at 37° C. in an incubator with 5% CO2. Then compounds, dissolved in DMSO, are added in dose-response. Cells are incubated with compound dilutions for another 6 days at 37° C. in an incubator with 5% CO2. Cell viability is quantitated using the ATPlite kit (Perkin-Elmer) and the luminescence is read-out using an Envision instrument (Perkin-Elmer). The amount of relative light units produced using the ATPlite kit is used to calculated percent of inhibition.
(§2) The activities of some example compounds are depicted in Table 7. The activity ranges A, B and C refer to EC50 values in the mesothelioma cell line proliferation assay as described as follows: “A”: EC50<1 μM; “B”: 1 μM≤EC50≤10 μM and “C”: EC50>10 μM; NT: not tested.

NCI-H2052 = assay: Mesothelioma cell line proliferation assay (ATPlite), NCI-H2052; settings: Homo sapiens, 144 h; NCI-H2052 cells, 6 days with compound, cell viability by ATPlite
Method: as §1, §2

C=CC(=O)NCc1nn(-c2ccc(C(F)(F)F)cc2)c2cc(C(F)(F)F)ccc12 [compound 74, N-[[6-(trifluoromethyl)-1-[4-(trifluoromethyl)phenyl]indazol-3-yl]methyl]prop-2-enamide] gave an EC50 [1] of less than 1 µM, an EC50 (NCI-H226) of less than 1 µM and an EC50 (NCI-H2052) of less than 1 µM.

C=CC(=O)NCc1cn(-c2ccc(C(F)(F)F)cc2)c2ccccc12 [compound 27, N-((1-(4-(trifluoromethyl)phenyl)-1H-indol-3-yl)methyl)acrylamide] gave an EC50 [1] of less than 1 µM, an EC50 (NCI-H226) greater than 10 µM and an EC50 (NCI-H2052) of 1 to 10 µM.

C=CC(=O)NCc1nn(-c2ccc(C(F)(F)F)cc2)c2ccc(OC[C@@H]3CCOC3)cc12 (single isomer, unassigned) [compound 48] gave an EC50 [1] of less than 1 µM, an EC50 (NCI-H226) of less than 1 µM and an EC50 (NCI-H2052) of less than 1 µM.

Compound C=CC(=O)NCc1nn(-c2ccc(C(F)(F)F)cc2)c2ccc(OC[C@H]3CCOC3)cc12 (single isomer, unassigned) [compound 47] has an EC50 [1] of less than 1 µM, an EC50 (NCI-H226) of less than 1 µM and an EC50 (NCI-H2052) of less than 1 µM.

In the case of C=CC(=O)Nc1cn(-c2ccc(C(F)(F)F)cc2)c2ccccc12 [compound 20, N-(1-(4-(trifluoromethyl)phenyl)-1H-indol-3-yl)acrylamide], the EC50 [1] is reported as less than 1 µM, the EC50 (NCI-H226) is reported as 1 to 10 µM and the EC50 (NCI-H2052) is reported as less than 1 µM.

C=CC(=O)NCc1nn(-c2ccc(C(F)(F)F)cc2)c2cc(OC3CC3)ccc12 [compound 50, N-[[6-(cyclopropoxy)-1-[4-(trifluoromethyl)phenyl]indazol-3-yl]methyl]prop-2-enamide] gave an EC50 [1] of less than 1 µM, an EC50 (NCI-H226) of less than 1 µM and an EC50 (NCI-H2052) of less than 1 µM.

In the case of C=CC(=O)NCc1nn(-c2ccc(C(F)(F)F)cc2)c2ccc(OCc3cc[nH]n3)cc12 [compound 58, N-[[5-(1H-pyrazol-3-ylmethoxy)-1-[4-(trifluoromethyl)phenyl]indazol-3-yl]methyl]prop-2-enamide], the EC50 [1] is reported as less than 1 µM, the EC50 (NCI-H226) is reported as less than 1 µM and the EC50 (NCI-H2052) is reported as less than 1 µM.

Compound C=CC(=O)NCc1nn(-c2ccc(C(F)(F)F)cc2)c2ccccc12 [compound 1, N-((1-(4-(trifluoromethyl)phenyl)-1H-indazol-3-yl)methyl)acrylamide] has an EC50 [1] of less than 1 µM, an EC50 (NCI-H226) of less than 1 µM and an EC50 (NCI-H2052) of less than 1 µM.

C#CCOc1ccc2c(c1)c(CNC(=O)C=C)nn2-c1ccc(C(F)(F)F)cc1 [compound 63, N-[[5-prop-2-ynoxy-1-[4-(trifluoromethyl)phenyl]indazol-3-yl]methyl]prop-2-enamide] showed an EC50 [1] of less than 1 µM, an EC50 (NCI-H226) of less than 1 µM and an EC50 (NCI-H2052) of less than 1 µM.

For CS(=O)(=O)NCc1nn(-c2ccc(C(F)(F)F)cc2)c2ccccc12 [compound 3, N-((1-(4-(trifluoromethyl)phenyl)-1H-indazol-3-yl)methyl)methanesulfonamide], the EC50 [1] was less than 1 µM, the EC50 (NCI-H226) was greater than 10 µM and the EC50 (NCI-H2052) was greater than 10 µM.

Work on C=CC(=O)NCc1cc2ccccc2n1Cc1ccc(C(F)(F)F)cc1 [compound 31, N-((1-(4-(trifluoromethyl)benzyl)-1H-indol-2-yl)methyl)acrylamide] yielded an EC50 [1] of less than 1 µM, an EC50 (NCI-H226) of less than 1 µM and an EC50 (NCI-H2052) of 1 to 10 µM.

C=CC(=O)NCc1nn(-c2ccc(C(F)(F)F)cc2)c2ccc(OCC3CC3)cc12 [compound 66, N-[[5-(cyclopropylmethoxy)-1-[4-(trifluoromethyl)phenyl]indazol-3-yl]methyl]prop-2-enamide] was tested, and the EC50 [1] was less than 1 µM, the EC50 (NCI-H226) was less than 1 µM and the EC50 (NCI-H2052) was less than 1 µM.

Compound C=CC(=O)NCc1nn(-c2ccc(C(F)(F)F)cc2)c2ccc(OCc3ccccc3)cc12 [compound 54, N-[[5-benzyloxy-1-[4-(trifluoromethyl)phenyl]indazol-3-yl]methyl]prop-2-enamide] has an EC50 [1] of less than 1 µM, an EC50 (NCI-H226) of less than 1 µM and an EC50 (NCI-H2052) of less than 1 µM.

C=CC(=O)NCc1nn(-c2ccc(C(F)(F)F)cc2)c2ccc(OCC3CCOC3)cc12 (racemic) [compound 46, N-[[5-[[rac-tetrahydrofuran-3-yl]methoxy]-1-[4-(trifluoromethyl)phenyl]indazol-3-yl]methyl]prop-2-enamide] gave an EC50 [1] of less than 1 µM, an EC50 (NCI-H226) of less than 1 µM and an EC50 (NCI-H2052) of less than 1 µM.

C=CC(=O)NCc1nn(-c2ccc(C(F)(F)F)cc2)c2cccnc12 [compound 40, N-((1-(4-(trifluoromethyl)phenyl)-1H-pyrazolo[4,3-b]pyridin-3-yl)methyl)acrylamide] showed an EC50 [1] of less than 1 µM, an EC50 (NCI-H226) of less than 1 µM and an EC50 (NCI-H2052) of less than 1 µM.

C=CC(=O)NCc1nn(-c2ccc(C(F)(F)F)cc2)c2ccc(OCC#N)cc12 [Cpd. No. 43, N-[[5-(cyanomethoxy)-1-[4-(trifluoromethyl)phenyl]indazol-3-yl]methyl]prop-2-enamide] showed an EC50 [1] of less than 1 µM, an EC50 (NCI-H226) of less than 1 µM and an EC50 (NCI-H2052) of less than 1 µM.

Work on C=CC(=O)NCc1nn(-c2ccc(C(F)(F)F)cc2)c2ccc(C(F)(F)F)cc12 [compound 71, N-[[5-(trifluoromethyl)-1-[4-(trifluoromethyl)phenyl]indazol-3-yl]methyl]prop-2-enamide] yielded an EC50 [1] of less than 1 µM, an EC50 (NCI-H226) of less than 1 µM and an EC50 (NCI-H2052) of less than 1 µM.
